Results from patent US5245077A, “L-buthionine-S-sulfoximine and methods of making” (Cornell Research Foundation Inc., priority 1992, dated 1993).
Entries after “also recorded” stand apart in the source; their conditions may differ. Like-named read-outs stand apart in the source and are kept apart here.

Legend:
[1] = system: L-glutamylcysteine uptake; settings: kidney; cited from earlier work
[2] = biological target: T1, gamma-glutamylcysteine synthetase (Rattus norvegicus, UniProt P19468); settings: cited from earlier work
T1 sequence (P19468 1-637): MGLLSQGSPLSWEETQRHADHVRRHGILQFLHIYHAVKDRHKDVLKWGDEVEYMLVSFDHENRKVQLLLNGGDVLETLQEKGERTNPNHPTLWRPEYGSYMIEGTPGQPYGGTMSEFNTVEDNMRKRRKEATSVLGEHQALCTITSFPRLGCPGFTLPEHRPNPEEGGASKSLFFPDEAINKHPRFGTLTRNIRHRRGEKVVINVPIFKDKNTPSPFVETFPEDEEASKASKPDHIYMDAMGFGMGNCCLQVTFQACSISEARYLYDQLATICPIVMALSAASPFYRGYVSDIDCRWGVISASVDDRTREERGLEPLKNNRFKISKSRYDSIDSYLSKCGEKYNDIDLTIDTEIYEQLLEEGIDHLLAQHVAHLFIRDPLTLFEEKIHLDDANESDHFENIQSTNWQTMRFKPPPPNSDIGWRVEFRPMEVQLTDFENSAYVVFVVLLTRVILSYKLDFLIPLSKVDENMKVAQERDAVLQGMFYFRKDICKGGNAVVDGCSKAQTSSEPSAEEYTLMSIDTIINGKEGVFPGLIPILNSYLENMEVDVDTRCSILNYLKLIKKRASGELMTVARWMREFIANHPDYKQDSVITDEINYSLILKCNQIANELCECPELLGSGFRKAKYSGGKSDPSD
T1 sequence (P48508 1-274 partner): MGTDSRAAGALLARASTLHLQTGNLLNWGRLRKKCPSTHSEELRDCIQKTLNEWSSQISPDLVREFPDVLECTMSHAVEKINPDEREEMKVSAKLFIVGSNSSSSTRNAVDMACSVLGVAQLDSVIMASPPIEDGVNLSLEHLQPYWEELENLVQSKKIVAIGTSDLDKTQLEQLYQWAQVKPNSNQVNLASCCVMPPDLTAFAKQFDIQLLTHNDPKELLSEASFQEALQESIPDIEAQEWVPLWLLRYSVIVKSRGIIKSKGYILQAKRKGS

[3] = system: tissue glutathione levels; assay: Glutathione depletion in mice (tissue glutathione levels); type: in vivo; settings: for glutathione level of kidney / glutathione level of liver / glutathione level of pancreas: 2 hours after injection; for glutathione level of kidney: L-SR and D-SR 0.4 mmole/kg, L-S and L-R 0.2 mmole/kg; for glutathione level of liver / glutathione level of pancreas: SR 0.4 mmole/kg, S 0.2 mmole/kg; for depletion of glutathione in liver (in words) / depletion of glutathione in pancreas (in words): L-R 0.2 mmole/kg, D-SR 0.4 mmole/kg
Method: Tissue glutathione levels were determined as described in Griffith, O. W., Anal. Biochem. 106, 207-212, (1980).
Thirty two mice were given physiological saline, 4 mice were given 0.4 mmole/kg of L-buthionine-SR-sulfoximine, 4 mice were given 0.2 mmole/kg of L-buthionine-S-sulfoximine, 4 mice were given 0.2 mmoles/kg of L-buthionine-R-sulfoximine and 4 mice were given 0.4 mmole/kg or D-buthionine-SR-sulfoximine. All injections were given intraperitoneally. Two hours after injection, the mice were killed, and the glutathione levels in the brain, liver, pancreas, and kidney were determined.

[4] = system: cystine transport; settings: cited from earlier work
[5] = system: Glutathione synthesis in tissues and cells; settings: in vitro or in vivo; cited from earlier work
[6] = system: Tumors in mice; settings: with ionizing radiation and various chemotherapeutic agents; cited from earlier work
[7] = biological target: T1, gamma-glutamylcysteine synthetase; assay: Inhibition of gamma-glutamylcysteine synthetase (coupled PK/LDH assay, NADH absorbance at 340 mμ); type: biochemical; settings: for Ki / binding mode: versus glutamate; for Ki: Lineweaver-Burk plot
Method: L-buthionine-S-sulfoximine, L-buthionine-R-sulfoximine and D-buthionine-SR-sulfoximine were assayed for ability to inhibit gamma-glutamylcysteine synthetase.
The assay procedure used is similar to that described in Griffith, O. W., J. Biol. Chem. 257, 13704-13712 (1982).
The assay is based on the following reactions wherein GS is used to denote gamma-glutamylcysteine synthetase, PK is used to denote pyruvate kinase, LDH is used to denote lactate dehydrogenase, NADH is used to denote reduced beta-nicotinamide adenine dinucleotide, NAD^+ is used to denote oxidized beta-nictoninamide adenine dinucleotide, ATP is used to denote adenosine triphosphate, ADP is used to denote adenosine diphosphate, and Pi is used to denote inorganic phosphate.
The assay is based on the fact that the velocity of the reaction to produce gamma-glutamylaminobutyrate is reduced to the extent that GS is inhibited. […] Reactions (2) and (3) are a detection system for ADP wherein ADP, as it is produced, reacts with phosphoenolpyruvate to produce pyruate, which reacts with NADH to produce NAD^+. […] Thus, progress of the GS reaction results in a decrease in the absorbence of the solution at 340 mμ and, if GS is inhibited, the decrease in absorbence at 340 mμ occurs at a slower rate. Such studies are carried out at several concentrations of inhibitor.
Each test for inhibition was carried out in a cuvette containing in a final volume of 1 ml the following: 150 mM Tris-HCl buffer (pH 8.2), 75 mM KCl, 10 mM ATP, 5 mM phosphoenolpyruvate, 25 mM MgCl2, 1 to 5 mM L-glutamate, 10 mM α-amino-L-butyrate, 0.3 mM NADH, 0.2 mM EDTA, 10 International Units of PK, 10 International Units of LDH and 0.03 International Units of GS. […] Four sets of runs were made with 1 mM glutamate; 4 sets of runs were made with 1.7 mM glutamate; 4 sets of runs was made with 2.5 mM glutamate and 4 sets of runs were made with 5 mM glutamate. At each glutamate concentration, one set of runs were made with no inhibitor. For studies with L-buthionine-R-sulfoximine the other 3 sets of runs contained 0.05, 0.1, 0r 0.2 mM inhibitor. For studies with D-buthionine-SR-sulfoximine, the other 3 sets of runs contained 2, 5 or 10 mM inhibitor.
For each test run the temperature was kept at 37° C. and GS was added last to start the reaction. The reaction velocity was followed from the decrease in absorbence at 340 mμ (a decrease of 0.62 in optical density indicates 0.1 μmol of product was formed).
A Lineweaver-Burk plot was then prepared.
Complete inhibition was obtained in less than 5 min with either concentration tested.

[8] = system: Trypanosoma b. brucei; settings: mice infected with Trypanosoma b. brucei; cited from earlier work
[9] = Transport of 35S-labelled isomers into tissues (tissue content); type: in vivo, mice; settings: 2 mmole/kg i.p., 2 hours
Method: The transport of L-buthionine-S-sulfoximine and L-buthionine-R-sulfoximine into tissues was examined using preparations of each isomer radiolabeled with ^35 S.
L-[^35 S]-Buthionine-SR-sulfoximine was prepared from L-[^35 S]methionine as described previously (Griffith, O. W., J. Biol. Chem. 257, 13704-13712 (1982)). The preparation was separated into L-[^35 S]-buthionine-S-sulfoximine and L-[^35 S]-buthionine-R-sulfoximine by chromatography using Cu^++ D-proline buffer as described in Example III.
Twelve mice were injected intraperitoneally with L-[^35 S]-buthionine-S-sulfoximine and 12 mice were injected intraperitoneally with L-buthionine-R-sulfoximine. For all mice the dose was 2 mmole/kg. After 2 hours the mice were sacrificed, and the radioactivity contained in the various tissues was determined by liquid scintillation counting. From that determination and from the known specific activity of the compounds injected, the tissue content of either L-buthionine-S-sulfoximine or L-buthionine-R-sulfoximine was calculated. The results in μmole/gm tissue were as follows (tissue, content of L-buthionine-S-sulfoximine, content of L-buthionine-R-sulfoximine): brain, 0.11, 0.17; lung, 0.53, 0.55; heart, 0.33, 0.49; liver, 0.11, 0.16; spleen 0.51, 0.59; small intestine, 0.34, 0.39; large intestine, 0.25, 0.20; testes, 0.45, 0.50; skeletal muscle, 0.18, 0.24.

CCCCS(=O)(=O)CC[C@H](N)C(=O)O [L-buthionine sulfone]
L-glutamylcysteine uptake from the tubule (in words) [1]: inhibition of L-glutamylcysteine uptake from the tubule

CCCCS(=N)(=O)CC[C@H](N)C(=O)O (stereo partly drawn) [L-buthionine-SR-sulfoximine, L-(S-n-butyl)homocysteine-SR-sulfoximine]
inhibition of gamma-glutamylcysteine synthetase (in words) [2]: potent and specific inhibitor of gamma-glutamylcysteine synthetase
glutathione level of kidney ([3]; kidney, i.p.): 27 % of control
glutathione level of liver ([3]; i.p.): 52 % of control
glutathione level of pancreas ([3]; i.p.): about 42 % of control
effect on cystine transport (in words) [4]: deleterious effect on cystine transport
glutathione synthesis in tissues and cells (in words) [5]: Glutathione synthesis is decreased
effect on tumors in mice (in words) [6]: become glutathione depleted and more susceptible to the cytotoxic effects of ionizing radiation and various chemotherapeutic agents

CCCCS(=N)(=O)CC[C@@H](N)C(=O)O (stereo partly drawn) [D-buthionine-SR-sulfoximine, reference compound]
inhibition of gamma-glutamylcysteine synthetase (in words) [7]: weak and reversible inhibitors
reversibility of inhibition [7]: reversible inhibitor
Ki ([7]; 37° C., pH 8.2): 5200 µM
binding mode [7]: competitive with glutamate
glutathione level of kidney ([3]; kidney, i.p.): 70 % of control
depletion of glutathione in liver (in words) ([3]; i.p., 2 hours): did not cause significant depletion of glutathione
depletion of glutathione in pancreas (in words) ([3]; i.p., 2 hours): did not cause significant depletion of glutathione

N[C@@H](CCC(=O)O)C(=O)O [glutamate, L-glutamate]
Km ([7]; read-out: Km for glutamate, without inhibitor, 37° C., pH 8.2): 1700 ± 300 µM

CCCCS(=N)(=O)CCC(N)C(=O)O (racemic) [DL-buthionine-SR-sulfoximine]
survival of infected mice (in words) [8]: extended survival and in some cases to be cured

C[S@](=N)(=O)CC[C@H](N)C(=O)O [L-methionine-S-sulfoximine]
inhibition of gamma-glutamylcysteine synthetase (in words) [2]: the only diastereomer of DL-methionine-SR-sulfoximine that inhibits gamma-glutamylcysteine synthetase

CCCC[S@@](=N)(=O)CC[C@H](N)C(=O)O [L-buthionine-R-sulfoximine]
inhibition of gamma-glutamylcysteine synthetase (in words) [7]: weak and reversible inhibitors
reversibility of inhibition [7]: reversible inhibitor
Ki ([7]; 37° C., pH 8.2): 110 µM
binding mode [7]: competitive with glutamate
tissue content, brain [9]: 0.17 μmole/gm tissue
uptake or retention by some tissues (in words) ([9]; e.g., heart and liver): more effectively than L-buthionine-S-sulfoximine
tissue content, heart [9]: 0.49 μmole/gm tissue
tissue content, large intestine [9]: 0.20 μmole/gm tissue
tissue content, liver [9]: 0.16 μmole/gm tissue
tissue content, lung [9]: 0.55 μmole/gm tissue
tissue content, skeletal muscle [9]: 0.24 μmole/gm tissue
tissue content, small intestine [9]: 0.39 μmole/gm tissue
tissue content, spleen [9]: 0.59 μmole/gm tissue
tissue content, testes [9]: 0.50 μmole/gm tissue
depletion of glutathione in brain (in words) ([3]; brain, i.p., 2 hours): no significant effect on glutathione levels
effect on glutathione level in kidney (in words) ([3]; kidney): only a small effect on glutathione level in kidney
glutathione level of kidney ([3]; kidney, i.p.): 87 % of control
depletion of glutathione in liver (in words) ([3]; i.p., 2 hours): no significant effect on glutathione levels; also recorded: did not cause significant depletion of glutathione
depletion of glutathione in pancreas (in words) ([3]; i.p., 2 hours): no significant effect on glutathione levels; also recorded: did not cause significant depletion of glutathione

CCCC[S@](=N)(=O)CC[C@H](N)C(=O)O [L-buthionine-S-sulfoximine]
inhibition of gamma-glutamylcysteine synthetase (in words) [7]: strongly and irreversibly inhibits
reversibility of inhibition [7]: irreversible inhibition
time to complete inhibition ([7]; 0.01 or 0.1 mM inhibitor, either concentration): less than 5 min
reversal of inhibition by dilution or gel permeation chromatography ([7]; buffers containing ATP and MgCl2): could not be reversed
tissue content, brain [9]: 0.11 μmole/gm tissue
tissue content, heart [9]: 0.33 μmole/gm tissue
tissue content, large intestine [9]: 0.25 μmole/gm tissue
tissue content, liver [9]: 0.11 μmole/gm tissue
tissue content, lung [9]: 0.53 μmole/gm tissue
tissue content, skeletal muscle [9]: 0.18 μmole/gm tissue
tissue content, small intestine [9]: 0.34 μmole/gm tissue
tissue content, spleen [9]: 0.51 μmole/gm tissue
tissue content, testes [9]: 0.45 μmole/gm tissue
depletion of tissue glutathione levels in several tissues (in words) ([3]; compared with L-buthionine-SR-sulfoximine at twice the dose): as effectively as L-buthionine-SR-sulfoximine given at twice the dose
glutathione level of kidney ([3]; kidney, i.p.): 27 % of control
glutathione level of liver ([3]; i.p.): 41 % of control
glutathione level of pancreas ([3]; i.p.): about 42 % of control
